Patent US20070010507A1, “Compounds useful in the therapy of alzheimer's disease and formulations containing them” (priority 2003, published 2007)

What follows are compounds tested on α-secretase-mediated APP metabolism (SH-SY5Y neuroblastoma cells) (assay: α-secretase-induced APPs release in culture medium of neuroblastoma cell line SH-SY5Y). Settings: 10 μM; APPs secreted in culture medium of SH-SY5Y cells; control = 100.
Format: cell-based
Procedure: The salts according to the present invention are stable crystalline products having strong antidepressive and anti-Alzheimer actions. The effect of the compounds of the invention on α-secretase-induced APPs release was determined in the culture medium of a neuroblastoma cell line (SH-SY5Y) according to what reported by Galbete J. L. et al. in Biochem. 348,307-313, 2000.
CC(C)=CCC[C@]1(C)[C@@H](CC=C(C)C)C[C@@]2(CC=C(C)C)C(=O)[C@]1(C(=O)C(C)C)C(=O)C(CC=C(C)C)=C2O [Hyperforin] was tested, and the APPs % was 296%. Compound “Memantine octahydrohyperforinate [Mentamine octahydrohyperforinate]” has an APPs % of 3221%. CC(C)CCC[C@]1(C)[C@@H](CCC(C)C)C[C@@]2(CCC(C)C)C(=O)[C@]1(C(=O)C(C)C)C(=O)C(CCC(C)C)=C2O [Octahydrohyperforin] gave an APPs % of 1383%. For CC(C)CCCC1(C)C(CCC(C)C)CC2(CCC(C)C)C(=O)C1(C(=O)C(C)C)C(=O)C(CCC(C)C)=C2O.COc1ccc2c3c1OC1CC(O)C=CC31CCN(C)C2 (stereo not drawn) [Galantamonium octahydrohyperforinate, Galantamine octahydrohyperforinate], the APPs % was 3652%.

Same assay, conditions: concentration not given; APPs secreted in culture medium of SH-SY5Y cells; control = 100
With COc1ccc2c3c1O[C@H]1C[C@@H](O)C=C[C@@]31CCN(C)C2 [Galantamine] the APPs % was 302%. In the case of CC(C)=CCC[C@]1(C)[C@@H](CC=C(C)C)C[C@@]2(CC=C(C)C)C(=O)[C@]1(C(=O)C(C)C)C(=O)C(CC=C(C)C)=C2O.COc1ccc2c3c1O[C@H]1C[C@@H](O)C=C[C@@]31CCN(C)C2 [Galantamonium hyperforinate], the APPs % is reported as 773%.
